# Active and inactive are the calls of the source. How the calls were made is not given here.
# Experiment: compounds inducing NF-kB luciferase expression – cell-based, SH-SY5Y, dose response (AID 1241)
# Conditions: SH-SY5Y NF-kB promoter luciferase reporter, fold induction
row,SMILES,EC50
1,O=C1/C(=C\c2ccco2)CCC/C1=C\c1ccco1,5000 nM
2,COCC(=O)Nc1nnc(-c2ccc(C(C)(C)C)cc2)s1,11000 nM
3,NC(=O)c1ccsc1NC(=O)c1ccc2c(c1)CCCC2,455 nM
4,Cn1cccc1C(=O)C(=O)Nc1ccc(Cl)cc1,25200 nM
5,Clc1ccccc1OCc1nc(-c2ccccn2)no1,2100 nM
6,O=C(Nc1nc2ccc(Cl)cc2s1)c1ccco1,1190 nM
7,O=C(C=C1SCCS1)/C=C/c1ccco1,781 nM
8,Cc1ccc(N/C=C/C(=O)c2cccs2)cc1C,270 nM
9,C=CCNc1nc(-c2ccc(Cl)cc2)cs1,11100 nM
10,Clc1c(CSc2nc3ccccc3o2)nc2ccccn12,1960 nM
11,Cc1ccc(-c2nc(-c3ccccc3)no2)cc1,925 nM
12,CN(C)c1ccc(NC(=O)Nc2cccc(Cl)c2)cc1,3420 nM
13,CC(C)c1ccc(NC(=O)NC2CCCCC2)cc1,8150 nM
14,Cc1ccc(C(=O)Nc2ccc3c(c2)CCC3)o1,31000 nM (inactive)
15,O=C1c2ccccc2NC(c2cnc3ccccc3n2)N1O (centres undefined),903 nM
16,CN(C)c1ccc(/C=N/NC(=O)c2ccco2)cc1,18200 nM
17,Cc1ccc(/C=N/Nc2nc3ccccc3s2)o1,790 nM
18,COC(=O)c1sc(NC(=O)c2cc3c(s2)CCCC3)nc1C,13600 nM
19,COc1cccc(N(C(=O)c2nc3nccc(C)n3n2)c2nc3ccccc3s2)c1,7220 nM
20,O=C(O)c1cccc(N/N=C/c2ccc(-c3ccccc3)cc2)c1,1790 nM
21,Cc1ccc(/C=N/Nc2cccc(C(=O)O)c2)s1,2120 nM
22,C=CCN=c1scc(-c2ccccc2)n1/N=C/c1ccccn1,1460 nM
23,O=C(Nc1ccc(Cl)cc1)c1ccc2c(c1)OCO2,2750 nM

row,SMILES,EC50
1,c1ccc2sc(-c3ccc4c(c3)OCO4)nc2c1,868 nM
2,CCc1ccc(NC(=O)c2cnn(-c3ccccc3)c2C)cc1,2560 nM
3,Cc1ccc(N=Nc2c(N)nn(-c3ccccc3)c2N)cc1,10000 nM
4,CC(=Nc1cccc(O)c1)c1sc2ccccc2c1O,2200 nM
5,COc1ccc(Cn2c(C3CC3)nc3ccc(NC(=O)C4CC4)cc3c2=O)cc1,1300 nM
6,O=C(COc1ccccc1Cl)Nc1ccc(Cl)cn1,15400 nM
7,CN(C)c1ccc(C(=O)c2ccc(N(C)C)c3ccccc23)cc1,221 nM
8,COc1ccc(Nc2nc(-c3ccccc3)cs2)cc1,752 nM
9,O=C(N/N=C/c1cccc(F)c1)c1csc2c1CCCC2,21900 nM
10,O=C(/C=C/Nc1cccc(O)c1)c1ccccc1,2100 nM
11,Oc1ccc(/C=N/Nc2cccc3cccnc23)c(O)c1,2950 nM
12,COc1ccc(C(=O)/C=C/Nc2ccc(C)cn2)cc1OC,6490 nM
13,Cc1ccc(C(=O)Nc2ncc(Cc3ccc(F)cc3)s2)o1,6160 nM
14,CN=c1scc(-c2ccccc2F)n1/N=C(\C)c1cccnc1,24400 nM
15,Cc1cccnc1Nc1nc(-c2ccc(O)cc2)cs1,8130 nM
16,CC(/C=N/Nc1nc2ccccc2[nH]1)=C\c1ccccc1,4160 nM
17,CCOC(=O)/C(=C\c1ccccc1)C(=O)c1cc(C(C)=O)c(Nc2ccccc2)s1,17400 nM
18,Cc1cccc(Nc2nc(-c3cccs3)cs2)n1,1220 nM
19,O=c1[nH]c(/C=C2\C=Nc3ccccc32)c(O)n1Cc1ccccc1F,2540 nM
20,COc1ccccc1Oc1ccc(N/C=C/C(=O)c2ccco2)cc1,7130 nM
21,c1ccc(Cn2ccc(-c3cnc(-c4ccccc4)s3)n2)cc1,2240 nM
22,Cc1ccnc(NC(=O)/C=C/c2ccccc2[N+](=O)[O-])c1,557 nM
23,O=C(Nc1nccs1)c1ccc(-c2ccc(Cl)cc2)o1,27600 nM

row,SMILES,EC50
1,CC(C)c1ccc(Nc2nc(CC(=O)O)cs2)cc1,5810 nM
2,Oc1ccc(-c2csc(Nc3ncccn3)n2)cc1,3440 nM
3,COc1ccc(-c2cn3cc(C)ccc3n2)cc1OC,3370 nM
4,Cc1ccc(C)c(NC(=O)c2ccc3ccccc3n2)c1,1880 nM
5,Cc1ccsc1C(=O)Nc1ccc2c(c1)OCCO2,3080 nM
6,CN(C)c1ccc(NC(=O)CCCc2ccccc2)cc1,2460 nM
7,CCCCNc1ncnc2c1cnn2-c1ccc(Cl)cc1,7760 nM
8,Cc1ccc(Nc2nc3ccccc3s2)c(C)c1,874 nM
9,Cc1ccc(NC2=Nc3ccccc3CS2)cc1,1340 nM
10,CCN(CC)C(=O)c1sc2nc(-c3ccccc3)ccc2c1N,3090 nM
11,O=C(O)c1ccc(N/N=C/c2cn(-c3ccccc3)nc2-c2cccs2)cc1,1700 nM
12,CC(C)c1ccc(-n2cnn(-c3ncccc3[N+](=O)[O-])c2=O)cc1,1590 nM
13,CSC(=S)N/N=C(\C)c1ccccc1,1170 nM
14,CCOC(=O)N/C(N)=N/c1nc2ccccc2s1,9450 nM
15,O=C(Nc1ccc(F)cc1)/C(Cl)=C/c1ccccc1,23400 nM
16,Cc1ccc2nc3cc([N+](=O)[O-])cc([N+](=O)[O-])c3cc2c1,1190 nM
17,C/C(=N\NC(=O)c1ccc(Br)cc1)c1ccccc1,23400 nM
18,Nc1ccc(-c2nc3ccc([N+](=O)[O-])cc3[nH]2)cc1,1650 nM
19,Cc1csc(NC(=O)c2cc3c(s2)CCC3)n1,1050 nM
20,COc1ccc(/C=N/Nc2nc3ccccc3o2)cc1O,2140 nM
21,COc1ccc(N/C=C\C(=O)c2ccc3c(c2)OCO3)cc1,1630 nM
22,Nc1ccc2nc(-c3ccc(Cl)cc3)[nH]c2c1,9960 nM
23,COc1ccc(/C=C/c2nc3ccccc3n2Cc2ccccc2OC)cc1,4980 nM

row,SMILES,EC50
1,Cc1ccc(/C=C2\OC(=O)c3ccccc32)cc1,6030 nM
2,Nc1nn(-c2cccc(F)n2)cc1-c1ccc(Cl)cc1,675 nM
3,COc1ccc(-c2nnc(SCc3ccccc3F)o2)cc1,3890 nM
4,N/C(=N\OC(=O)c1ccccc1Cl)c1ccccc1,956 nM
5,COc1ccc(C(=O)Nc2ccc3c(c2)OCCO3)cc1,1350 nM
6,Cc1cc(/C=C(\C#N)C(=O)Nc2ccccc2F)c(C)[nH]1,28700 nM
7,Cc1ccc(-c2cn3cccc(C)c3n2)cc1,2300 nM
8,O=C(c1cnn(-c2ccccc2)c1)c1ccccc1O,1700 nM
9,N#C/C(=N\Nc1ccc(Cl)cc1)C(=N)N1CCCCC1,1720 nM
10,CC(=Nc1ccccc1)c1sc2ccccc2c1O,6490 nM
11,CCc1ccc2oc(-c3ccc(N)cc3)nc2c1,342 nM
12,O=C(/C=C/c1ccccc1Cl)c1ccccc(=O)c1O,8070 nM
13,Cc1ccc(-c2nnc(-c3cccs3)o2)cc1,2790 nM
14,COc1ccc(-n2nc3cc(C)c(N)c(Br)c3n2)cc1,1440 nM
15,COc1ccc(-c2cc(-c3ccccc3O)[nH]n2)cc1,968 nM
16,CNc1nc(-c2ccc3c(c2)CCN3C(=O)c2ccccc2F)cs1,2660 nM
17,Cc1ccc(C(=O)/C=C/Nc2ccc3c(c2)OCO3)cc1,896 nM
18,Nc1ccccc1C(=O)OCCOc1ccccc1,910 nM
19,O=c1oc2ccccc2cc1-c1csc(Nc2ccc(O)cc2)n1,3230 nM
20,CC(=O)Nc1ccc2nc(-c3ccccc3)cn2c1,2700 nM
21,O=C(Nc1ccc(Cl)c(Cl)c1)Nc1ccccc1C(=O)O,1670 nM
22,Cc1nc(Nc2ccccc2)sc1-c1ccccc1,1450 nM
23,CCC(C)c1ccc(NC(=O)c2cccs2)cc1 (centres undefined),734 nM

row,SMILES,EC50
1,Fc1ccccc1/C=C/c1ccc2ccccc2n1,319 nM
2,O=C(OCC(=O)c1cccs1)c1ccccc1,12600 nM
3,COc1cccc(/C=C/C(=O)Nc2ccc3c(c2)OCCO3)c1OC,1050 nM
4,CSc1ccccc1-c1nnc(-c2ccccc2)o1,3700 nM
5,Cc1ccc(C(=O)Nc2ccc3nccnc3c2)cc1,1110 nM
6,CC(=O)CSc1nc2cc3c(cc2cc1C#N)OCCO3,104 nM
7,Cc1ccc(C(=O)Nc2nc3c(s2)CCCC3)o1,1780 nM
8,CC(C)(C)C(=O)Nc1nc(-c2ccccc2)ns1,2730 nM
9,COc1ccc2c(c1)CC/C(=C/c1ccco1)C2=O,1730 nM
10,CCCC(=O)Nc1ccc(C(=O)N/N=C/c2ccc[nH]2)cc1,2990 nM
11,NC(=O)c1ccccc1N/C=C/C(=O)c1ccccc1,1040 nM
12,Cc1ccc(/C=C/C(=O)NC2=NCCS2)cc1,4320 nM
13,Cc1csc(SCc2nnc(-c3ccccc3Br)o2)n1,4680 nM
14,Cc1cccc(/C=C/c2nc3ccccc3c(=O)[nH]2)c1,829 nM
15,CC(C)CC(=O)Nc1ccc2nn(-c3ccccc3)nc2c1,5700 nM
16,Oc1ccc(-c2csc(Nc3ncccn3)n2)c(O)c1,945 nM
17,OCc1cn(-c2ccccc2)nc1-c1cc2ccccc2o1,6680 nM
18,O=C(Nc1ccc2c(c1)CCC2)c1ccc(Br)s1,772 nM
19,CCC(=O)NC(=Nc1nc2ccccc2s1)NC(=O)CC,4450 nM
20,Cc1ccc(OCC(=O)Nc2ccccc2[N+](=O)[O-])c(Br)c1,9490 nM
21,Cc1ccn2cc(-c3cc4ccccc4oc3=O)nc2c1,137 nM
22,Cn1cccc1/C=C1\CCC/C(=C\c2cccn2C)C1=O,8630 nM
23,O=C1C(C=Nc2ccc(F)cc2)=C(O)c2ccccc21,2410 nM

row,SMILES,EC50
1,C/C(N)=C(/C#N)C(=O)CSc1nnc(-c2ccc3c(c2)OCO3)o1,< 59 nM
2,FC(F)(F)c1cc(Cl)c2nc(-c3ccccc3)cn2c1,5670 nM
3,COc1ccc(N=C(C)C2=C(O)c3ccccc3C2=O)cc1,889 nM
4,COc1cccc(-c2nc(-c3ccccc3)no2)c1,1490 nM
5,Cc1ccc(-c2cc(-c3cccc(F)c3)n[nH]2)c(O)c1,4400 nM
6,c1cnc(SCCOc2ccc3c(c2)CCC3)nc1,8800 nM
7,COc1ccc(C(=O)Nc2cccc(C)c2)cc1,6190 nM
8,COc1cc(/C=C(/C(=O)c2cccs2)c2nc3ccccc3[nH]2)cc(OC)c1O,7670 nM
9,Cc1ccc(C(=O)C(C)OC(=O)c2ccccc2[N+](=O)[O-])cc1 (centres undefined),9080 nM
10,Cc1ccnc(NC(=O)CCCOc2cc(=O)n(C)c3ccccc23)c1,10500 nM
11,O=C(O)c1cc(N/N=C/c2ccc3c(c2)OCCO3)ccc1Cl,26500 nM
12,Cc1ccc(O)c(NC(=O)c2noc3c2CCCCC3)c1,9290 nM
13,COc1ccc(-c2nc(-c3ccc(Br)o3)no2)cc1,2010 nM
14,CCCCc1ccc(-c2ccc(Br)cc2)nc1,16300 nM
15,O=C(c1cc(-c2cccc(O)c2)on1)N1CCCCC1,5510 nM
16,Cc1cccc(NC(=O)c2cnc3sccn3c2=O)c1,998 nM
17,CC(C)CC(=O)Nc1ccc(-c2cn3ccsc3n2)cc1,8510 nM
18,O=C(/C=C\c1ccccc1)Nc1nccs1,1070 nM
19,N/C(=N\OC(=O)c1cc(Br)ccc1Cl)c1ccccn1,2220 nM

# From PubChem BioAssay AID1241 (SRMLSC, 2008)
